Data on two compounds can be found in ChEMBL document CHEMBL4177534, “Discovery and evaluation of 1H-pyrrolo[2,3-b]pyridine based selective and reversible small molecule BTK inhibitors for the treatment of rheumatoid arthritis” (Bioorg Med Chem Lett, 2017).

Each structure is given as a SMILES string. Some results are limits rather than exact numbers.

What all share (type): functional
What all share (set-up): scale not given: the % may be the effect or the level left

Assay [1] relates to Mus musculus. In words: Ex-vivo inhibition of BTK in C57BL/6J mouse assessed as anti-mouse IgD antibody stimulated BCR mediated CD69 level in whole blood isolated from 10 to 100 mg/kg, po bid treated mouse measured after 2 hrs post first dose by flow cytometry relative to control. Background: A flow cytometer gives signals particle by particle.
The test system of assay [2] is Mus musculus. In words: Ex-vivo inhibition of BTK in C57BL/6J mouse assessed as anti-mouse IgD antibody stimulated BCR mediated CD69 level in whole blood isolated from 10 mg/kg, po bid treated mouse measured after 2 hrs post first dose by flow cytometry relative to control.
In assay [3] the test system is Mus musculus. In words: Ex-vivo inhibition of BTK in C57BL/6J mouse assessed as anti-mouse IgD antibody stimulated BCR mediated CD69 level in whole blood isolated from 100 mg/kg, po bid treated mouse measured after 6 hrs post first dose by flow cytometry relative to control.

For the compound `O=C1c2c(F)cc(C3CC3)cc2OCCN1c1cccc(-c2ccnc3[nH]c(C4=CCN(C5COC5)CC4)cc23)c1CO`, the Activity in the assay with Mus musculus [1] is on record as more than 90%. On to `CCN1CCN(Cc2ccc(-c3cc4c(-c5cccc(N6CCOc7cc(C8CC8)cc(F)c7C6=O)c5CO)ccnc4[nH]3)nc2)CC1`, for which the Activity in the assay on Mus musculus [2] was found to be 48%; with Mus musculus [3], 83%.
